The structures appear in SMILES notation.

For 10 compounds, % of inhibition, % of control and % binding results are on record in ChEMBL document CHEMBL5465560, “Selectivity Literature for EUbOPEN Chemogenomic Library” (2024).

In assay [1] the target is CDK1/Cyclin A (Homo sapiens) (UniProt P06493+P20248). In words: Selectivity interaction (LanthaScreen Eu Kinase Binding Assay) EUB0001632a CDK1. It is filed as protein-complex assay. The settings on record: at 10 µM.
In assay [2] the target is Serine/threonine-protein kinase pim-1 (Homo sapiens, UniProt P11309). Kind of assay: Selectivity interaction (Kinase panel (Z-LYTE Assay)) EUB0001632a PIM1. To be noted: at 10 µM.
Assay [3] deals with Serine/threonine-protein kinase NIM1 (Homo sapiens, UniProt Q8IY84). In words: Selectivity interaction (KinomeScan (DiscoverX)) EUB0000595a NIM1K. To be noted: at 10 µM.
Assay [4] addresses T1, Aurora kinase C (Homo sapiens) (UniProt Q9UQB9).
T1 sequence (whole entry): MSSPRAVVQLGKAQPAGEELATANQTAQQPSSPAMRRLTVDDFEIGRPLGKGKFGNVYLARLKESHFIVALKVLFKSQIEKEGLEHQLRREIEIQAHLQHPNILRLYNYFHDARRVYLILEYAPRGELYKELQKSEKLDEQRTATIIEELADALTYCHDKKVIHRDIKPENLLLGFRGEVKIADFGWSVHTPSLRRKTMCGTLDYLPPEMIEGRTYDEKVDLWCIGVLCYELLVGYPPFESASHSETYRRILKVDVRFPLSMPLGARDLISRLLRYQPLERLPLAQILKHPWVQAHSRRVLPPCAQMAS
The settings on record: at 10 µM.

Assay [5] deals with T2, Receptor-type tyrosine-protein kinase FLT3 (Homo sapiens), P36888 [N841I].
T2 sequence (whole entry): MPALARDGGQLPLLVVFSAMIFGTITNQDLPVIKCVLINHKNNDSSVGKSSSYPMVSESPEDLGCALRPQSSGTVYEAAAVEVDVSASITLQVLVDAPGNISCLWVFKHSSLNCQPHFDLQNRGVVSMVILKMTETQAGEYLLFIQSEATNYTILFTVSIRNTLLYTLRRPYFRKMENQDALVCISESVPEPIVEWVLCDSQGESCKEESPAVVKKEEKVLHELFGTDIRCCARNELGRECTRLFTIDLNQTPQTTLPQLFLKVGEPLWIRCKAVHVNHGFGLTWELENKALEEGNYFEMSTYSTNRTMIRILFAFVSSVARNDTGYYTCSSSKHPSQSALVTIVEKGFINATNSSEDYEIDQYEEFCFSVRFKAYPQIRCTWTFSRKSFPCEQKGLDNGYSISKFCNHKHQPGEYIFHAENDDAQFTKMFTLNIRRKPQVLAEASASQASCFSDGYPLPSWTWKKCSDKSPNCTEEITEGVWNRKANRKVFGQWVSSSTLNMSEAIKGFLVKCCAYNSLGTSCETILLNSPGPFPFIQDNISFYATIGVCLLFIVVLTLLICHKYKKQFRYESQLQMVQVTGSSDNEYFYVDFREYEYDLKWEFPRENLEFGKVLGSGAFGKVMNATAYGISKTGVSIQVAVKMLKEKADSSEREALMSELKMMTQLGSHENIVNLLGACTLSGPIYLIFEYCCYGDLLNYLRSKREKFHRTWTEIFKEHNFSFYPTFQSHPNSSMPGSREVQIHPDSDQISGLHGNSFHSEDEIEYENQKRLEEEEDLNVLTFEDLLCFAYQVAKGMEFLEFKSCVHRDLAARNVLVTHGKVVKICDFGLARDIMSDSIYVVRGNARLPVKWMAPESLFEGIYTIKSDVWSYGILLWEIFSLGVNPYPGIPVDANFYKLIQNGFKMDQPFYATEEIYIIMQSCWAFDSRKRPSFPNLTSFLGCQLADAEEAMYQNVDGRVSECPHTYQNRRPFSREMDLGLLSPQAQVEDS
The settings on record: at 10 µM.

Assay [6] deals with Serine/threonine-protein kinase Nek4 (Homo sapiens) (UniProt P51957). Kind of assay: Selectivity interaction (KinomeScan (DiscoverX)) EUB0000695a NEK4. The settings on record: at 100 nM.
For assay [7], the target named is Bone morphogenetic protein receptor type-1B (Homo sapiens, UniProt O00238). Kind of assay: Selectivity interaction (KinomeScan (DiscoverX)) EUB0000607a BMPR1B. To be noted: at 10 µM.
The target of assay [8] is Serine/threonine-protein kinase WNK2 (Homo sapiens) (UniProt Q9Y3S1). Kind of assay: Selectivity interaction (ActivX KiNativ screen (kinase selectivity in THP-1 cell lysates)) EUB0000639a WNK2. It is filed as subcellular. The settings on record: lysate, at 0.2 µM.
For assay [9], the system named is RAF proto-oncogene serine/threonine-protein kinase (Homo sapiens), P04049 [Y340D,Y341D]. In words: Selectivity interaction (ProQinase) EUB0000171b RAF1.
For assay [10], the target named is Calcium/calmodulin-dependent protein kinase type 1D (Homo sapiens) (UniProt Q8IU85). In words: Selectivity interaction (ProQinase) EUB0000171b CAMK1D.
Assay [11] addresses Non-receptor tyrosine-protein kinase TYK2 (Homo sapiens, UniProt P29597). Kind of assay: Selectivity interaction (KinomeScan (DiscoverX)) EUB0000618a TYK2. The settings on record: at 10 µM.
In assay [12] the target is Myosin light chain kinase, smooth muscle (Homo sapiens, UniProt Q15746). Kind of assay: Selectivity interaction (KinomeScan (DiscoverX)) EUB0000618a MYLK. To be noted: at 10 µM.
Assay [13] addresses Tyrosine-protein kinase Fyn (Homo sapiens) (UniProt P06241). Kind of assay: Selectivity interaction (KinomeScan (DiscoverX)) EUB0000092b FYN. The settings on record: at 10 µM.
The target in assay [14] is T3, Serine/threonine-protein kinase STK11 (Homo sapiens) (UniProt Q15831).
T3 sequence (whole entry): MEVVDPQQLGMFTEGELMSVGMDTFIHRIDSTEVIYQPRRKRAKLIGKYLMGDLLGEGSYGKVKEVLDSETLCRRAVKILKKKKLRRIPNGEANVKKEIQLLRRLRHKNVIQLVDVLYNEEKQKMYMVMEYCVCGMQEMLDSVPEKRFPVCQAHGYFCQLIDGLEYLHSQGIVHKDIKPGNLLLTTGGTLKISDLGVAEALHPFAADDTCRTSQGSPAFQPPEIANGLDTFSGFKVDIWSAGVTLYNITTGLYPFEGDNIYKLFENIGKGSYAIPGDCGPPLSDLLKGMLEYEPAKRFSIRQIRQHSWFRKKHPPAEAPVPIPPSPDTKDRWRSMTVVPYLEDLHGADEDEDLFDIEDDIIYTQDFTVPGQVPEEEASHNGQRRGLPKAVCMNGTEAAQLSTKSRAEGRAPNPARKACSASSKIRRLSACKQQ
In words: Selectivity interaction (KinomeScan (DiscoverX)) EUB0000229b STK11. To be noted: at 10 µM.

Calcium/calmodulin-dependent protein kinase type 1D (Homo sapiens), sequence (Q8IU85 whole entry, looked up): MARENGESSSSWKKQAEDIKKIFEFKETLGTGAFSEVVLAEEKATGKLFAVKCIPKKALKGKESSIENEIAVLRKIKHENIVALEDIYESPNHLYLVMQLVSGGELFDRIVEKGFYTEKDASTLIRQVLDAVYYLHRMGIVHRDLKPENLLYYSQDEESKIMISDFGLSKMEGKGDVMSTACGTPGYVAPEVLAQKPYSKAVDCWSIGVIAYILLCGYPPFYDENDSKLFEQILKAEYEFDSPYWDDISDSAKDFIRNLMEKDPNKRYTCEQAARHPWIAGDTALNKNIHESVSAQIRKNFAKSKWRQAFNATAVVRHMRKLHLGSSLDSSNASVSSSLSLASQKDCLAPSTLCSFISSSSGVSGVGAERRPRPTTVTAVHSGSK
RAF proto-oncogene serine/threonine-protein kinase (Homo sapiens), P04049 [Y340D,Y341D], sequence (P04049 whole entry Y340D/Y341D): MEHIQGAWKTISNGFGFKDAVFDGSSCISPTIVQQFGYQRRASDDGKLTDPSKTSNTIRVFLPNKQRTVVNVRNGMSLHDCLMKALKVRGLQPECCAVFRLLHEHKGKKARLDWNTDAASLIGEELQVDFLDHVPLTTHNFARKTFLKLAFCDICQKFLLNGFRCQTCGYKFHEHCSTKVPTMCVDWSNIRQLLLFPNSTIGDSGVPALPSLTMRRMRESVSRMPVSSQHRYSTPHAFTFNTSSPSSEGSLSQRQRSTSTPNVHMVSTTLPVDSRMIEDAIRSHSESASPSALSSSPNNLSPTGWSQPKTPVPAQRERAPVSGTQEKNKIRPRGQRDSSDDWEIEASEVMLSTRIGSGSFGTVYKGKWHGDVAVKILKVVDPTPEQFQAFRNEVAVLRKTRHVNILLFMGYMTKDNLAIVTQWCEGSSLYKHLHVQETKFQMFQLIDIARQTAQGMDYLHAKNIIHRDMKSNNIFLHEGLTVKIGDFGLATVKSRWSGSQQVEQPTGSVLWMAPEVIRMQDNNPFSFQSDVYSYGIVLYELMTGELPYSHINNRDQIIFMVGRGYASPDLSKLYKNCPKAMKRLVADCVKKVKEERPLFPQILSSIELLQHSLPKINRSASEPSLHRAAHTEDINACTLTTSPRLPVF
Tyrosine-protein kinase Fyn (Homo sapiens), sequence (P06241 2-537 limits assumed): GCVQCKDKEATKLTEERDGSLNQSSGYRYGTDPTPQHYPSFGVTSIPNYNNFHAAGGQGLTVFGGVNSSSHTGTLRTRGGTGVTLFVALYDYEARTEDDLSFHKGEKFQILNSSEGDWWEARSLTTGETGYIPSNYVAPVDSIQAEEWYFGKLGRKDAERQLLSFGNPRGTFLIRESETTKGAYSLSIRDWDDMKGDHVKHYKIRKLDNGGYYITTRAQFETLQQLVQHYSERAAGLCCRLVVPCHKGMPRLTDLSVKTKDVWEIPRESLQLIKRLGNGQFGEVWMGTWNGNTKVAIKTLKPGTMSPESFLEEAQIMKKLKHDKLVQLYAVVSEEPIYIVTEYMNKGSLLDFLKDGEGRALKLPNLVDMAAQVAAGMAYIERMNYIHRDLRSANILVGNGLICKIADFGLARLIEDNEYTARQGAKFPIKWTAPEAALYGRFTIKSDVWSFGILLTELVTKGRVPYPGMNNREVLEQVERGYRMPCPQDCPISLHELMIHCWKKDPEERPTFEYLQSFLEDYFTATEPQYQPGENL
Serine/threonine-protein kinase Nek4 (Homo sapiens), sequence (P51957 whole entry, looked up): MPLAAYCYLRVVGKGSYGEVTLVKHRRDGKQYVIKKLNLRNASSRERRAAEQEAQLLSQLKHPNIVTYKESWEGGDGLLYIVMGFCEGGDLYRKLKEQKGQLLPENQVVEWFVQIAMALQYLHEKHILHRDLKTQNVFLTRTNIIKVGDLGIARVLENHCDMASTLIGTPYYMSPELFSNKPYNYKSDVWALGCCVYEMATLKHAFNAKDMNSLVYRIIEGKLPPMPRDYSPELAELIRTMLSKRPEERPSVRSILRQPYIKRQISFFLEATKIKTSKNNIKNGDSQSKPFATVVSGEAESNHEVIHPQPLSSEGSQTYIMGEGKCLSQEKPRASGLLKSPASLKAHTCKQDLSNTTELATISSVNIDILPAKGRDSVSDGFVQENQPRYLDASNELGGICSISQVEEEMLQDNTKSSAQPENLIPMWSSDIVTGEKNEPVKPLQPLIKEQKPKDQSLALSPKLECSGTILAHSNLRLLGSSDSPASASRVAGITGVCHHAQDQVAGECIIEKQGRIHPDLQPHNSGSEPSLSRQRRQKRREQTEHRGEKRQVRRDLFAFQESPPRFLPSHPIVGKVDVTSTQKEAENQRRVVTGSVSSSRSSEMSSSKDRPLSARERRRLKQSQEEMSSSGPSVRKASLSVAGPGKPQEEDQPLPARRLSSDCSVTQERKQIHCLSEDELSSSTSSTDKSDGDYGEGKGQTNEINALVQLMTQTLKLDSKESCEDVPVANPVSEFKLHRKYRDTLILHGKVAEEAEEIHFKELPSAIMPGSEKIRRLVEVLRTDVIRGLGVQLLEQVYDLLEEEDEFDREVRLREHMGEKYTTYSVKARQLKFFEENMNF
Myosin light chain kinase, smooth muscle, sequence (Q15746 whole entry): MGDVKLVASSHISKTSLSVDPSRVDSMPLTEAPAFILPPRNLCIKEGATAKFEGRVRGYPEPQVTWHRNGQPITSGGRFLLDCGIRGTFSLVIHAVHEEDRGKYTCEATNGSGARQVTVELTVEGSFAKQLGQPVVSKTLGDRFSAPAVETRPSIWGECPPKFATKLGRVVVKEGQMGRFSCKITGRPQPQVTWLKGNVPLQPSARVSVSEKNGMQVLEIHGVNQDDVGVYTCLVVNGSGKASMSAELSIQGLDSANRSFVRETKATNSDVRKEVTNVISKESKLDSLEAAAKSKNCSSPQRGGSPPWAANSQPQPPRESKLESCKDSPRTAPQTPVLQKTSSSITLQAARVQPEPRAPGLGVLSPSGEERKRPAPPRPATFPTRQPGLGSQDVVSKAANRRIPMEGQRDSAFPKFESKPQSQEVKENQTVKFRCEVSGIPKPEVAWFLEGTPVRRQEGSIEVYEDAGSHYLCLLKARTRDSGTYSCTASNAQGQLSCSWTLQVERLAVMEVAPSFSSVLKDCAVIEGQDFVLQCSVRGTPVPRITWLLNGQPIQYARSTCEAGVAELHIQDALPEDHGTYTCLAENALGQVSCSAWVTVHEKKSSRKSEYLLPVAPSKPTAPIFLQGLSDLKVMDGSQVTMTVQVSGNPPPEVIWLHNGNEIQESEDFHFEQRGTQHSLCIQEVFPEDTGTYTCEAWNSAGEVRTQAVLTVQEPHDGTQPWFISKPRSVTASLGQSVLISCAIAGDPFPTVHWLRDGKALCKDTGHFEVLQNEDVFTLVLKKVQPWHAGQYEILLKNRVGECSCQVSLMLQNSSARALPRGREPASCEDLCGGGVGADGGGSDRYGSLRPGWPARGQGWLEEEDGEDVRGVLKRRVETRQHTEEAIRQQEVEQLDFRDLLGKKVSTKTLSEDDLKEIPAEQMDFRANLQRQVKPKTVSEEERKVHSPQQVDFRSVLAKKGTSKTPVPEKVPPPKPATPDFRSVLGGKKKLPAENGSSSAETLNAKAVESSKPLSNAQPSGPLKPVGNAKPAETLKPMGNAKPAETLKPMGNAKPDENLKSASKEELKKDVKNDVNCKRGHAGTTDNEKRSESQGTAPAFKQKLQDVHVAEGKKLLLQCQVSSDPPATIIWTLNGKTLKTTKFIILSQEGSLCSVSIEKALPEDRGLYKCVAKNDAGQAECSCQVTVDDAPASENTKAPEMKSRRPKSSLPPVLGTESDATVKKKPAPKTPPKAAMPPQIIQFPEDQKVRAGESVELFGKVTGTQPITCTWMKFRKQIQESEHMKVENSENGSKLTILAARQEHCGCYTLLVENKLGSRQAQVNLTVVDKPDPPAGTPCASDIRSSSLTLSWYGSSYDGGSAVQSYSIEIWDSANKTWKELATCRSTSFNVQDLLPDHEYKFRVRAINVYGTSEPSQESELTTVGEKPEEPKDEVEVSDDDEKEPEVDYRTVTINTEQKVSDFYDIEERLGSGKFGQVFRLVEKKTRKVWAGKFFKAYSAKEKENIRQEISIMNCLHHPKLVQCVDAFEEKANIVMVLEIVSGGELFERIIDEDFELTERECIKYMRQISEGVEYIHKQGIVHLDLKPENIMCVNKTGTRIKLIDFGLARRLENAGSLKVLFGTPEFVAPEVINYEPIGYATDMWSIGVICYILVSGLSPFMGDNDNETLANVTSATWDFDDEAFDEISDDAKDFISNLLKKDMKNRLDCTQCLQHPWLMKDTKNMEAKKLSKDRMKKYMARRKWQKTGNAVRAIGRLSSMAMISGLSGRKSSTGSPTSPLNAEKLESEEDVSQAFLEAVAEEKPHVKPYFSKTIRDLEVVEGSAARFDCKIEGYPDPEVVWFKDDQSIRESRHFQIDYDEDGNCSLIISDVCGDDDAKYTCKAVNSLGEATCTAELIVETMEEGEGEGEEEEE
CDK1/Cyclin A (Homo sapiens), sequence (P06493 whole entry, looked up): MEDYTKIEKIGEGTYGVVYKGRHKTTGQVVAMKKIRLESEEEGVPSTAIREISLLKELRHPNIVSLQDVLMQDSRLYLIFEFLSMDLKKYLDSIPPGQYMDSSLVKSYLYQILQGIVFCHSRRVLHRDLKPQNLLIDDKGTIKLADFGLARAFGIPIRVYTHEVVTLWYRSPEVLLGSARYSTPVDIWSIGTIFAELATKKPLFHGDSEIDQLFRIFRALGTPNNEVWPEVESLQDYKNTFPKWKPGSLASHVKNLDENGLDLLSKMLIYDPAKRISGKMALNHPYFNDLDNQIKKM
CDK1/Cyclin A (Homo sapiens), sequence (P20248 whole entry, looked up): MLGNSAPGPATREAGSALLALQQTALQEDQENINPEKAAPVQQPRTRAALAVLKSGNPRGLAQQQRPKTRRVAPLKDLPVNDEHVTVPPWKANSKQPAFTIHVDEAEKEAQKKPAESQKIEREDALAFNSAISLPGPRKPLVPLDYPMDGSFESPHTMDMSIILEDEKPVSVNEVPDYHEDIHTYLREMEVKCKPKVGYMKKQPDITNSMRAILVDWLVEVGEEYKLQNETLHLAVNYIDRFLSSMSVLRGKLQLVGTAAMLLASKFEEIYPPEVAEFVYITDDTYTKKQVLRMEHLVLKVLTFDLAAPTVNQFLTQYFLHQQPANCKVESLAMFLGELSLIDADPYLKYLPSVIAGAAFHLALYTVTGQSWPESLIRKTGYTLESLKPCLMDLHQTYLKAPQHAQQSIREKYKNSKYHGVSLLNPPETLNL

For `Cn1cc(-n2cnc3c(NCc4nc5cc(Cl)c(Cl)cc5[nH]4)nc(N4CCOCC4)nc32)cn1`, in assay [1], the % of inhibition was -246%. The % of control in assay [2] was -1.78%.

In the case of `COCC(=O)NC/C=C/c1ccc2ncnc(Nc3ccc(Oc4ccc(C)nc4)c(C)c3)c2c1` [CP-724714], in assay [3], the % of control was found to be 87%.

`CCN(CC)CCCCNc1ncc2cc(-c3cc(OC)cc(OC)c3)c(NC(=O)NC(C)(C)C)nc2n1`: the % of control in assay [4] and in assay [5] was 100% each time.

Consider `Cc1cc(F)c(C(=O)Nc2cccc(-c3nncn3C(C)C)n2)cc1-n1cnc(C2CC2)c1`, for which the % of control in assay [6] was found to be 100%.

`CNC(=O)Nc1ccc(-c2nc(N3CC4CCC(C3)O4)c3cnn(C4CCC5(CC4)OCCO5)c3n2)cc1`: in [7], the % of control stood at 93%.

With `CC[C@@H]1[C@H](F)C(=O)N[C@@H]1COc1nccc2cc(C(N)=O)c(OC)cc12` [ZIMLOVISERTIB], the % of inhibition in assay [8] was -12%.

Consider `C=CC(=O)Nc1cccc(C(=O)Nc2ccc(Nc3cc(-c4[nH]c(SC)nc4C)ccn3)cc2)c1`, for which the % of control in [9] (at 1 µM) came out at 96%; in assay [9] (at 5 µM), 92%; in [10] (at 1 µM), 90%; in assay [10] (at 5 µM) it was 75%.

In the case of `O[C@H]1CC[C@H](Nc2ncc3nc(Nc4c(F)cc(F)cc4F)n([C@H]4CCOC4)c3n2)CC1`, the % of control came to 81% in [11] and 94% in [12].

On to `CCC(=O)N1CCN(c2ccc(-n3c(=O)ccc4cnc5ccc(-c6cnc7ccccc7c6)cc5c43)cc2C(F)(F)F)CC1`, for which the % of control in [13] was 49%.

In the case of `COc1cc(N(C)c2ccnc3ccc(C(F)(F)F)cc23)cc(OC)c1OC`, the % binding in [14] turned out to be 77%.
